Source: the supplement of paper PMC4862054

Assays:
SK-BR-3 [1] = conditions: 72 h
Summary of the method: (§1)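 For viability and cell death testing, 384-well plates carried compound at 5 concentrations in 10-fold steps over a compound-specific 10,000-fold range, and breast cancer cell lines were seeded in 20 µl suspension. After 72 h incubation, cell death was read by CellTox Green fluorescence (485/520 nm) before viability was read by CellTiter-Glo luminescence. EC50 was fitted from the dose-response curves and censored at the top concentration. Normalisation on each plate was to 0.1 % DMSO and a positive kill control.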

DU-4475 [2] = conditions: 72 h
Summary of the method: as §1

MDA-MB-436 [3] = conditions: 72 h
Summary of the method: as §1

MDA-MB-453 [4] = conditions: 72 h
Summary of the method: as §1

MCF-10A [5] = conditions: 72 h
Summary of the method: as §1

CAL-51 [6] = conditions: 72 h
Summary of the method: as §1

HCC1937 [7] = conditions: 72 h
Summary of the method: as §1

HCC1599 [8] = conditions: 72 h
Summary of the method: as §1

CAL-85-1 [9] = conditions: 72 h
Summary of the method: as §1

MDA-MB-231 [10] = conditions: 72 h
Summary of the method: as §1

BT-549 [11] = conditions: 72 h
Summary of the method: as §1

HCC1143 [12] = conditions: 72 h
Summary of the method: as §1

Hs578T [13] = conditions: 72 h
Summary of the method: as §1

CAL-120 [14] = conditions: 72 h
Summary of the method: as §1

MFM-223 [15] = conditions: 72 h
Summary of the method: as §1

CAL-148 [16] = conditions: 72 h
Summary of the method: as §1

DU-4475 [17] = conditions: 72 h; remark: listed apart in the source
Summary of the method: (§2)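 EC50 is the value from a fitted percent-inhibition dose-response curve, censored at the highest concentration, and rows with zero drug sensitivity score were not kept. The underlying assay seeded breast cancer cell lines in 20 µl onto 384-well plates pre-loaded with compound in 5 µl medium for 72 h. Viability was then read by CellTiter-Blue fluorescence at 560/590 nm after 2 h at 37 °C, with each plate normalised to vehicle and a positive kill control.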

MDA-MB-453 [18] = conditions: 72 h; remark: listed apart in the source
Summary of the method: as §2

HDQ-P1 [19] = conditions: 72 h
Summary of the method: as §2

CAL-51 [20] = conditions: 72 h; remark: listed apart in the source
Summary of the method: as §2

CAL-85-1 [21] = conditions: 72 h; remark: listed apart in the source
Summary of the method: as §2

CAL-148 [22] = conditions: 72 h; remark: listed apart in the source
Summary of the method: as §2

SK-BR-3 [23] = conditions: 72 h; remark: listed apart in the source
Summary of the method: as §2

MDA-MB-436 [24] = conditions: 72 h; remark: listed apart in the source
Summary of the method: as §2

HCC1937 [25] = conditions: 72 h; remark: listed apart in the source
Summary of the method: as §2

HCC1599 [26] = conditions: 72 h; remark: listed apart in the source
Summary of the method: as §2

MDA-MB-231 [27] = conditions: 72 h; remark: listed apart in the source
Summary of the method: as §2

BT-549 [28] = conditions: 72 h; remark: listed apart in the source
Summary of the method: as §2

HCC1143 [29] = conditions: 72 h; remark: listed apart in the source
Summary of the method: as §2

BT-474 = conditions: 72 h
Summary of the method: as §2

MDA-MB-468 [30] = conditions: 72 h
Summary of the method: as §2

Hs578T [31] = conditions: 72 h; remark: listed apart in the source
Summary of the method: as §2

CAL-120 [32] = conditions: 72 h; remark: listed apart in the source
Summary of the method: as §2

MFM-223 [33] = conditions: 72 h; remark: listed apart in the source
Summary of the method: as §2

MCF-10A [34] = conditions: 72 h; remark: listed apart in the source
Description: (§3)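 Drug sensitivity and resistance testing (DSRT) of breast cancer cell lines in 384-well plates, 5 concentrations in 10-fold dilutions over a compound-specific 10,000-fold range. After 72 h, cytotoxicity was read by CellTox Green fluorescence and viability by CellTiter-Glo luminescence (multiplexed), normalised to DMSO and benzethonium chloride controls. EC50 is the inflection point of the fitted dose-response curve (bottom asymptote free, so it can be relative for partial curves) and is censored at the highest tested concentration. Rows with DSS 0 (no meaningful response) were excluded.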

HDQ-P1 [35] = conditions: 72 h; remark: listed apart in the source
Description: as §3

CAL-51 [36] = conditions: 72 h; remark: listed apart in the source
Description: as §3

CAL-85-1 [37] = conditions: 72 h; remark: listed apart in the source
Description: as §3

MDA-MB-231 [38] = conditions: 72 h; remark: listed apart in the source
Description: as §3

BT-549 [39] = conditions: 72 h; remark: listed apart in the source
Description: as §3

MDA-MB-468 [40] = conditions: 72 h; remark: listed apart in the source
Description: as §3

Hs578T [41] = conditions: 72 h; remark: listed apart in the source
Description: as §3

MFM-223 [42] = conditions: 72 h; remark: listed apart in the source
Description: as §3

MDA-MB-468 [43] = assay: normalised viability (% of control), CellTiter-Blue; higher = more viable cells (about 100 = DMSO control); conditions: incubation time: 72 h
Summary of the method: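 The reported figure is normalised viability at a single listed concentration of the series. Breast cancer cell lines (20 µl suspension) went onto 384-well plates holding compound in 5 µl medium for 72 h. CellTiter-Blue (2.5 µl, 2 h, 37 °C) was read by fluorescence at 560/590 nm, and each plate was scaled to vehicle at 100 and a positive kill control at 0.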

CAL-148 [44] = conditions: 72 h; remark: listed apart in the source
Description: as §3

MDA-MB-436 [45] = conditions: 72 h; remark: listed apart in the source
Description: as §3

CC(C)(C)c1cnc(CSc2cnc(NC(=O)C3CCNCC3)s2)o1 [SNS-032]
EC50, CellTiter-Glo (SK-BR-3 [1]): 61.4 nM
EC50, CellTiter-Glo (DU-4475 [2]): 203 nM
EC50, CellTiter-Glo (MDA-MB-436 [3]): 46.8 nM
EC50, CellTiter-Glo (MDA-MB-453 [4]): 41.1 nM
EC50, CellTiter-Glo (MCF-10A [5]): 157 nM
EC50, CellTiter-Glo (CAL-51 [6]): 17.1 nM
EC50, CellTiter-Glo (HCC1937 [7]): 87.8 nM
EC50, CellTiter-Glo (HCC1599 [8]): 233 nM
EC50, CellTiter-Glo (CAL-85-1 [9]): 62.8 nM
EC50, CellTiter-Glo (MDA-MB-231 [10]): 54.1 nM
EC50, CellTiter-Glo (BT-549 [11]): 41.9 nM
EC50, CellTiter-Glo (HCC1143 [12]): 46.5 nM
EC50, CellTiter-Glo (Hs578T [13]): 101 nM
EC50, CellTiter-Glo (CAL-120 [14]): 102 nM
EC50, CellTiter-Glo (MFM-223 [15]): 137 nM
EC50, CellTiter-Glo (CAL-148 [16]): 33.2 nM
EC50, CellTiter-Blue viability (DU-4475 [17]): 203 nM
EC50, CellTiter-Blue viability (MDA-MB-453 [18]): 125 nM
EC50, CellTiter-Blue viability (HDQ-P1 [19]): 110 nM
EC50, CellTiter-Blue viability (CAL-51 [20]): 571 nM
EC50, CellTiter-Blue viability (CAL-85-1 [21]): 128 nM
EC50, CellTiter-Blue viability (CAL-148 [22]): 128 nM
EC50, CellTiter-Blue viability (SK-BR-3 [23]): 123 nM
EC50, CellTiter-Blue viability (MDA-MB-436 [24]): 376 nM
EC50, CellTiter-Blue viability (HCC1937 [25]): 79.7 nM
EC50, CellTiter-Blue viability (HCC1599 [26]): 150 nM
EC50, CellTiter-Blue viability (MDA-MB-231 [27]): 133 nM
EC50, CellTiter-Blue viability (BT-549 [28]): 249 nM
EC50, CellTiter-Blue viability (HCC1143 [29]): 206 nM
EC50, CellTiter-Blue viability (BT-474): 168 nM
EC50, CellTiter-Blue viability (MDA-MB-468 [30]): 353 nM
EC50, CellTiter-Blue viability (Hs578T [31]): 101 nM
EC50, CellTiter-Blue viability (CAL-120 [32]): 160 nM
EC50, CellTiter-Blue viability (MFM-223 [33]): 169 nM
EC50, CellTox Green (MCF-10A [34]): 172 nM
EC50, CellTox Green (HDQ-P1 [35]): 32.2 nM
EC50, CellTox Green (CAL-51 [36]): 11.1 nM
EC50, CellTox Green (CAL-85-1 [37]): 41.2 nM
EC50, CellTox Green (MDA-MB-231 [38]): 30.9 nM
EC50, CellTox Green (BT-549 [39]): 255 nM
EC50, CellTox Green (MDA-MB-468 [40]): 7580 nM
EC50, CellTox Green (Hs578T [41]): 85.8 nM
EC50, CellTox Green (MFM-223 [42]): 142 nM
normalised viability (MDA-MB-468 [43]; 10 nM): 114%
normalised viability (MDA-MB-468 [43]; 1000 nM): 11.3%
normalised viability (MDA-MB-468 [43]; 10000 nM): 5.84%

CC(=O)N(O)CCCCCNC(=O)CCC(=O)N(O)CCCCCNC(=O)CCC(=O)N(O)CCCCCN [Deferoxamine]
EC50, CellTiter-Glo (SK-BR-3 [1]): 6450 nM
EC50, CellTiter-Glo (DU-4475 [2]): 3480 nM
EC50, CellTiter-Glo (MDA-MB-436 [3]): 1570 nM
EC50, CellTiter-Glo (CAL-51 [6]): 6360 nM
EC50, CellTiter-Glo (HCC1937 [7]): 696 nM
EC50, CellTiter-Glo (HCC1599 [8]): 3970 nM
EC50, CellTiter-Glo (BT-549 [11]): 852 nM
EC50, CellTiter-Glo (HCC1143 [12]): 832 nM
EC50, CellTiter-Glo (Hs578T [13]): 2660 nM
EC50, CellTiter-Glo (CAL-148 [16]): 1920 nM
EC50, CellTox Green (CAL-51 [36]): 1900 nM
EC50, CellTox Green (CAL-148 [44]): 221 nM

Nc1ncn([C@@H]2O[C@H](CO)[C@@H](O)[C@H]2O)c(=O)n1 [Azacitidine]
EC50, CellTiter-Glo (MDA-MB-436 [3]): 1120 nM
EC50, CellTiter-Glo (HCC1599 [8]): 1290 nM
EC50, CellTiter-Glo (BT-549 [11]): 1280 nM
EC50, CellTiter-Blue viability (MDA-MB-436 [24]): 1060 nM
EC50, CellTiter-Blue viability (HCC1937 [25]): > 10000 nM
EC50, CellTiter-Blue viability (BT-549 [28]): 2570 nM
EC50, CellTiter-Blue viability (MDA-MB-468 [30]): 650 nM
EC50, CellTiter-Blue viability (Hs578T [31]): 6120 nM
EC50, CellTiter-Blue viability (CAL-120 [32]): > 10000 nM
EC50, CellTox Green (MDA-MB-436 [45]): > 10000 nM
EC50, CellTox Green (MDA-MB-468 [40]): 595 nM
normalised viability (MDA-MB-468 [43]; 10 nM): 110%
normalised viability (MDA-MB-468 [43]; 1000 nM): 40.7%
normalised viability (MDA-MB-468 [43]; 10000 nM): 20.9%

CC(=O)c1c(C)c2cnc(Nc3ccc(N4CCNCC4)cn3)nc2n(C2CCCC2)c1=O [Palbociclib]
EC50, CellTiter-Glo (SK-BR-3 [1]): 2240 nM
EC50, CellTiter-Glo (MCF-10A [5]): 1020 nM
EC50, CellTiter-Glo (CAL-51 [6]): > 10000 nM
EC50, CellTiter-Glo (Hs578T [13]): > 10000 nM
EC50, CellTiter-Glo (CAL-120 [14]): 409 nM
EC50, CellTiter-Glo (MFM-223 [15]): 86.9 nM
